{
  "source": "patent US20060281786A1",
  "about": "“Compounds having activity at 5ht2c receptor and uses thereof” (priority 2003, published 2006)",
  "data": [
    {"smiles": "COc1cc2c3c(n(C)c2cc1Br)CN(c1ccc(OC)c(OCCN2CCCCC2)c1)C3=O.Cl", "values": [
      {"measurement": "melting point", "value": "227 to 229", "unit": "°C"}
    ]}
  ]
}
